Assay results reported in US20250074891A1 (Anaxis Pharma Pty Ltd., priority 2021, published 2025).
pIC50, pKd: −log10 of the molar value. Like-named read-outs stand apart in the source and are kept apart here.

How the values were obtained:
U937 cells = test: Counter screen: cell viability without TSQ cocktail (off-target effect); design: species or system human
Experimental: Counter screen: In parallel, all compounds were tested for their ability to affect cell viability. The same U937 cells were treated with compound in DMSO without the TSQ cocktail. This counter screen enabled evaluation of off-target effects. In this case, cell viability was measured by CelltiterGlo.

RIP1 = RIP1 (Homo sapiens (Human), UniProt Q13546); test: KINOMEscan binding assay, RIP1; details: Table 35
RIP3 = RIP3 (Homo sapiens (Human), UniProt Q9Y572); test: KINOMEscan binding assay, RIP3; details: Table 35
Experimental: (§1) Kinase assays. For most assays, kinase-tagged T7 phage strains were grown in parallel in 24-well blocks in an E. coli host derived from the BL21 strain. E. coli were grown to log-phase and infected with T7 phage from a frozen stock (multiplicity of infection=0.4) and incubated with shaking at 32° C. until lysis (90-150 minutes).
(§2) The Hill Slope was set to −1.

MLKL (full length) = MLKL (full length) (Homo sapiens (Human), UniProt Q8NB16); test: KINOMEscan binding assay, MLKL (full length)
Experimental: as §1, §2

[1] = system: U937 human histiocytic leukemia cell line; test: Cellular assay: inhibition of TSQ induced necroptosis (CellTitre-Glo); details: U937 cells, TSQ cocktail, 48 hours, read-out: Inhibition of TSQ-induced necroptosis (IC50 cell-based assay)
Experimental: […] ASSAY: Screening compounds for inhibition of TSQ induced necroptosis, 384 well plate format.
Cell Line ID: U937 human histiocytic leukemia cell line.
Cell Concentration (cells/well): Final cell density is 20,000 cells per well.
Cell growth medium: HT-RPMI medium+7.4% Fetal Bovine Serum (FBS). Cells are cultured in Corning 150 cm^z tissue culture flasks with vented caps at 37° C./5% CO2.
Incubation: Plates were incubated at 37° C./5% CO2 in a humidified incubator for 48 hours following addition of compounds and death stimuli (TSQ cocktail).
Compound concentration: 36 μM starting concentration, 1:3 dilution, 10 point
DMSO final concentration (% v/v): 0.3%.
Compounds in TSQ cocktail (T: TNF; S: Smac mimetic; Q: Q-VD-OPh) and their final concentrations: • hTNF-Fc (100 ng/ml)—produced by standard procedures as shown in Bossen et al., J Biol Chem, 2006, 281(20), 13964-13971. • Compound A (500 nM)—Smac mimetic, Tetralogic and SYNthesis med chem • Q-VD-OPh (10 μM)—MP Biomedicals
The cellular assay was carried out according to the following steps: • 1. Each well was prepared by sequential addition of: • a. DMSO (control; columns 1-2 and 23-24) or compound in DMSO—addition was performed using acoustic transfer of nl volumes of stock compound to give final test concentrations of 36, 12, 4, 1.3, 0.44, 0.148, 0.049, 0.016, 0.005 and 0.002 μM. All wells were backfilled with DMSO to a final total volume in the well of 100 nl. • b. Following compound/DMSO addition in step (a), 40 μL of cell suspension (5×10^5 cells/mL) was added to provide a final cell concentration of 20,000 cells per well, and • c. Following cell addition in step (b), 10 μL of 5×TSQ cocktail (except to positive controls; […]) was added to each well. • 2. After 48 hours, plate was removed from the 37° C. incubator and equilibrated to room temperature for 45 minutes. • 3. 15 μL of room temperature CellTitre-Glo2™ (Promega™) was added to each well. • 4. Shook plates for 2 minutes (˜600 rpm) and incubated at room temperature for 15 minutes to allow signal to stabilise. • 5. Read luminescence readout on a plate reader.
Percent viability was calculated for each compound according to equation (2):
[formula] • wherein • RawData is the readout of any cell containing a compound of the invention • TA is the total activity provided by the luminescence readout from DMSO only wells (columns 2 and 24)=100% viability • NSA is the non-specific activity provided by DMSO+TSQ wells (columns 1 and 23)=0% viability
Curve fitting: 10-point titration curves are fitted with the 4-parameter logistic nonlinear regression model and the IC50 reported is the inflection point of the curve.
Analysis: Data was loaded into Dotmatics™ and visualised using the Tibco® Spotfire™ software. 10 points titration curves were fitted with the 4-parameter logistic nonlinear regression model and the IC50 reported reflect the inflection point of the curve for curve fitting.
Assay involving the TSQ cocktail (T: TNF; S: Smac mimetic; Q: Q-VD-OPh): TSQ treatment ensures that cells specifically undergo necroptotic cell death. TNF activates the TNF receptor, Smac mimetic directs the signal away from proinflammatory signaling and toward the RIP1/RIP3-mediated cell death pathways, and Q-VD-OPh ensures that the apoptotic response is blocked leaving only the programmed necrosis response. The compounds' activity (solution in DMSO) tested in this TSQ-induced assay was evaluated by determining the number of viable cells in culture by measuring the amount of ATP present as measured by CelltiterGlo.

[2] = Homo sapiens, U-937, Table 37, read-out: Off-target effect (IC50 cell-based assay)
[3] = Homo sapiens, U-937, Table 38, read-out: Off-target effect (IC50 cell-based assay)

Chain of MLKL (full length) (Q8NB16 whole entry): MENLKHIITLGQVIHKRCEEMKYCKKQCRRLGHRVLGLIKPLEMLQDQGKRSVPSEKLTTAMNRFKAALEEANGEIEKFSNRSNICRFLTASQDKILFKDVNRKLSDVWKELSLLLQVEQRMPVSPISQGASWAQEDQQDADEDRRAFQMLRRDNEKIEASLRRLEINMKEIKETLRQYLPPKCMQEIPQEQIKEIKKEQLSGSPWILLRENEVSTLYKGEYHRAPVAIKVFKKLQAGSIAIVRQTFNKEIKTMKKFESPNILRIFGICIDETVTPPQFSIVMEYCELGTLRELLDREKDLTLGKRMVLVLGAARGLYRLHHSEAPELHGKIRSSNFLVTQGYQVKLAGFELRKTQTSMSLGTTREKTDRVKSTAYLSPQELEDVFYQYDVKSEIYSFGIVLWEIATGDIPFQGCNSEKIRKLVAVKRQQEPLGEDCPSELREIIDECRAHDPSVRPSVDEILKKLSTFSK
Chain of RIP1 (Q13546 whole entry): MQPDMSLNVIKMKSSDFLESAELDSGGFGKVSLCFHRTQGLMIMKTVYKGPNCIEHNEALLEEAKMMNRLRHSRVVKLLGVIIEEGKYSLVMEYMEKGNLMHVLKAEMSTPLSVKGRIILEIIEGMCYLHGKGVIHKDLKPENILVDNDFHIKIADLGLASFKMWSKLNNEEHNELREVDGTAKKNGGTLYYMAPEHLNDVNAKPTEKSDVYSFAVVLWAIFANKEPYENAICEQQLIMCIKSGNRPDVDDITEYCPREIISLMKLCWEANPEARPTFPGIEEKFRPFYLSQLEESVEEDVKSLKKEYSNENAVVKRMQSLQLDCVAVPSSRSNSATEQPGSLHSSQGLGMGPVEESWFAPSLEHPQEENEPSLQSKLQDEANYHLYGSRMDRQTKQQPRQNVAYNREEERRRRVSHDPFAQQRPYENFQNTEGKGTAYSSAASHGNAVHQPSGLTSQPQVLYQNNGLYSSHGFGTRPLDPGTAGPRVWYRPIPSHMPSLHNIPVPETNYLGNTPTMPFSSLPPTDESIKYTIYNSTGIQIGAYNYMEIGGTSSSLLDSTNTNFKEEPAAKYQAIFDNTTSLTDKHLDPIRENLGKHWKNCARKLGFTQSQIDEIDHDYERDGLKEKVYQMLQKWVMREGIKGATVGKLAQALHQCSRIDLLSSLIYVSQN
Chain of RIP3 (Q9Y572 whole entry): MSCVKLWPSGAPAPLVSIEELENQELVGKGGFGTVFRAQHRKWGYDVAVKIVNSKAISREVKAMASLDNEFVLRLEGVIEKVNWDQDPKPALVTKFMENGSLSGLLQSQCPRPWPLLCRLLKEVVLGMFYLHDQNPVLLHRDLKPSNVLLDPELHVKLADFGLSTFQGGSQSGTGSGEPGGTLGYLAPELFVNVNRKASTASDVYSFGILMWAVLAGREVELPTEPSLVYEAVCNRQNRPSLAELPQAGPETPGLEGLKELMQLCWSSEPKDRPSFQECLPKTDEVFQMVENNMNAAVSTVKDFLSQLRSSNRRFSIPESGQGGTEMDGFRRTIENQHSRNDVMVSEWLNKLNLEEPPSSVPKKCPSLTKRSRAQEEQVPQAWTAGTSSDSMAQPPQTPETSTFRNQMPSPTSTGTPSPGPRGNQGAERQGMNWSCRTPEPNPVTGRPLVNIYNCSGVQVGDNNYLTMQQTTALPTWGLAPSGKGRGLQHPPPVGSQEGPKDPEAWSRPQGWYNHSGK

| SMILES | pIC50 (U937 cells; [2]) | pKd (RIP1) | pKd (RIP3) | pKd (MLKL (full length); Table 35) | pIC50 ([1]; Homo sapiens, U-937, Table 37) | pIC50 (U937 cells; [3]) | pKd (MLKL (full length); Table 36) | pIC50 ([1]; Homo sapiens, U-937, Table 38) | pIC50 (U937 cells; Table 37, read-out: Off-target effect (IC50 cell-based assay)) | pIC50 ([1]; Table 37) |
| --- | --- | --- | --- | --- | --- | --- | --- | --- | --- | --- |
| Cc1cc(Nc2[nH]nc(-c3ccc(NS(=O)(=O)C(F)F)c(O[C@@H](C)c4ccc(F)cc4)c3)c2C(N)=O)nn1C [Compound 285, (S)-3-(4-((difluoromethyl)sulfonamido)-3-(1-(4-fluorophenyl)ethoxy)phenyl)-5-((1,5-dimethyl-1H-pyrazol-3-yl)amino)-1H-pyrazole-4-carboxamide] | < 4.52 | < 4.52 | < 4.52 | > 8.00 | > 8.00 |  |  |  |  |  |
| NC(=O)c1c(-c2ccc(NS(=O)(=O)Cc3cccc(Cl)c3)cc2)n[nH]c1Nc1cccc(C(F)(F)F)n1 [Compound 9, 3-(4-(((3-chlorophenyl)methyl)sulfonamido)phenyl)-5-((6-(trifluoromethyl)pyridin-2-yl)amino)-1H-pyrazole-4-carboxamide] | < 4.52 | < 4.52 | < 4.52 | > 8.00 | 6.00 to 8.00 |  |  |  |  |  |
| CCS(=O)(=O)Nc1ccc(-c2c(C(N)=O)c(Nc3cnccn3)nn2C)cc1 [Compound 222, 5-(4-(ethylsulfonamido)phenyl)-1-methyl-3-(pyrazin-2-ylamino)-1H-pyrazole-4-carboxamide] | < 4.52 | < 4.52 | < 4.52 | > 8.00 | 4.52 to 6.00 |  |  |  |  |  |
| C[C@H](Oc1cc(-c2n[nH]c(Nc3cnccn3)c2C(N)=O)ccc1NS(=O)(=O)CC(F)(F)F)c1cccc(F)c1 [Compound 265, 3-{3-[(1S)-1-(3-fluorophenyl)ethoxy]-4-(2,2,2-trifluoroethanesulfonamido)phenyl}-5-[(pyrazin-2-yl)amino]-1H-pyrazole-4-carboxamide] | < 4.52 | < 4.52 | < 4.52 | > 8.00 | 4.52 to 6.00 |  |  |  |  |  |
| Cc1ncsc1-c1ccc(CNC(=O)[C@@H]2C[C@@H](O)CN2C(=O)[C@@H](NC(=O)CCn2ccc(Nc3[nH]nc(-c4ccc(NS(=O)(=O)C(F)F)c(O[C@@H](C)c5ccc(F)cc5)c4)c3C(N)=O)n2)C(C)(C)C)cc1 [Compound 1032, 3-[4-(difluoromethanesulfonamido)-3-[(1S)-1-(4-fluorophenyl)ethoxy]phenyl]-5-{[1-(2-{[(2S)-1-[(2S,4R)-4-hydroxy-2-({[4-(4-methyl-1,3-thiazol-5-yl)phenyl]methyl}carbamoyl)pyrrolidin-1-yl]-3,3-dimethyl-1-oxobutan-2-yl]carbamoyl}ethyl)-1H-pyrazol-3-yl]amino}-1H-pyrazole-4-carboxamide] |  |  |  |  |  | < 5.00 | > 8.00 | < 5.00 |  |  |
| CCS(=O)(=O)Nc1ccc(-c2n[nH]c(Nc3ccc(C(=O)OCCCCC(=O)N[C@H](C(=O)N4C[C@H](O)C[C@H]4C(=O)NCc4ccc(-c5scnc5C)cc4)C(C)(C)C)cn3)c2C(N)=O)cc1 [Compound 1060, 4-{[(2S)-1-[(2S,4R)-4-hydroxy-2-({[4-(4-methyl-1,3-thiazol-5-yl)phenyl]methyl}carbamoyl)pyrrolidin-1-yl]-3,3-dimethyl-1-oxobutan-2-yl]carbamoyl}butyl 6-{[4-carbamoyl-3-(4-ethanesulfonamidophenyl)-1H-pyrazol-5-yl]amino}pyridine-3-carboxylate] |  |  |  |  |  | < 5.00 | 6.00 to 8.00 | > 6.00 |  |  |
| CCS(=O)(=O)Nc1ccc(-c2n[nH]c(Nc3ccnc(OCCOCCOCCOCCOCCOCCOCC(=O)N[C@H](C(=O)N4C[C@H](O)C[C@H]4C(=O)NCc4ccc(-c5scnc5C)cc4)C(C)(C)C)c3)c2C(N)=O)cc1 [Compound 1009, 3-(4-ethanesulfonamidophenyl)-5-({2-[(1-{[(2S)-1-[(2S,4R)-4-hydroxy-2-({[4-(4-methyl-1,3-thiazol-5-yl)phenyl]methyl}carbamoyl)pyrrolidin-1-yl]-3,3-dimethyl-1-oxobutan-2-yl]carbamoyl}-2,5,8,11,14,17-hexaoxanonadecan-19-yl)oxy]pyridin-4-yl}amino)-1H-pyrazole-4-carboxamide] |  |  |  |  |  | < 5.00 | > 8.00 | < 5.00 |  |  |
| CCS(=O)(=O)Nc1ccc(-c2n[nH]c(Nc3cncc(C)n3)c2C(N)=O)cc1 [Compound 84, 3-(4-(ethylsulfonamido)phenyl)-5-((6-methylpyrazin-2-yl)amino)-1H-pyrazole-4-carboxamide] | < 4.52 | < 4.52 | 4.52 to 6.00 | > 8.00 | 4.52 to 6.00 |  |  |  |  |  |
| Cc1cnc(Nc2[nH]nc(-c3ccc(NS(=O)(=O)C(F)F)c(OCc4ccc(F)c(F)c4)c3)c2C(N)=O)cn1 [Compound 291, 3-(3-((3,4-difluoro-benzyl)oxy)-4-((difluoro-methyl)sulfon-amido)phenyl)-5-((5-methyl-pyrazin-2-yl)amino)-1H-pyrazole-4-carboxamide] |  | < 4.52 | < 4.52 | > 8.00 |  |  |  |  | 4.52 to 6.00 | > 8.00 |
| Cc1ncsc1-c1ccc(CNC(=O)[C@@H]2C[C@@H](O)CN2C(=O)[C@@H](NC(=O)CCCCOC(=O)c2ccc(Nc3[nH]nc(-c4ccc(NS(=O)(=O)C(F)F)c(OCc5ccc(F)cc5)c4)c3C(N)=O)nc2)C(C)(C)C)cc1 [Compound 1055, 4-{[(2S)-1-[(2S,4R)-4-hydroxy-2-({[4-(4-methyl-1,3-thiazol-5-yl)phenyl]methyl}carbamoyl)pyrrolidin-1-yl]-3,3-dimethyl-1-oxobutan-2-yl]carbamoyl}butyl 6-({4-carbamoyl-3-[4-(difluoromethanesulfonamido)-3-[(4-fluorophenyl)methoxy]phenyl]-1H-pyrazol-5-yl}amino)pyridine-3-carboxylate] |  |  |  |  |  | < 5.00 | 6.00 to 8.00 | > 6.00 |  |  |
